Measured values taken from patent publication US12194093B2, “Dosing parameters for CD47 targeting therapies to hematologic malignancies” (The Board of Trustees of the Leland Stanford Junior …, priority 2017, dated 2025).
Entries after “also recorded” stand apart in the source; their conditions may differ.

Assays:
HL60 leukemia cells = assay: Macrophage phagocytosis of HL60 leukemia cells (flow cytometry); format: cell-based, human; settings: azacitidine 1 μM
Protocol: Macrophages were labeled with an anti-CD206 Ab and all cells were analyzed by flow cytometry to determine phagocytosis of HL60 leukemia cells. Phagocytosis of HL60 leukemia cells was determined as percentage of GFP positive, HL60 engulfing, macrophages compared to total number of macrophages. Results were normalized to the condition with maximal phagocytosis (100%).

human AML = assay: Human AML xenograft mouse model, early death and disease clearance; format: in vivo
Source text: We have established a human AML xenograft mouse model to test CD47-SIRPalpha pathway blocking therapies.
We also observed that early death seemed to be related to burden of circulating disease, in that mice with high levels of circulating leukemia cells succumbed to early death.
The object of this study was to determine whether early death observed in AML-xenografted mice can be avoided by reducing the rate at which leukemia cells are killed. […] It was hypothesized that early death might be due either to agglutination of leukemic cells or tumor lysis, and that early death may be avoided by reducing the rate at which leukemia cells are killed.
All mice in the control group continuously progressed and died.

AML [1] = assay: Pre-clinical models, trough level and anti-leukemic activity; format: in vivo
Protocol: (§1) This trough level served as the minimum trough level target to guide dosing in the Phase 1 trial. […] Rapid peaks and troughs observed were consistent with target-mediated disposition due to non-linear saturation of the CD47 sink. […] Dose levels of 10 mg/kg or greater (Cohorts 3 and 4) achieve target trough levels by about 4 weeks, which is the time of first response assessment.
(§2) Prospective testing of AML patients' molecular, chromosomal, and phenotypic characteristics by DNA sequencing, cytogenetic analysis/fluorescence in situ hybridization (FISH), and flow cytometry, can lead to identification of patients with greater responses to Hu5F9-G4.

[2] = AML Phase 1 trial, serum concentrations of Hu5F9-G4; format: in vivo, human; settings: patients
Protocol: as §1

AML [3] = assay: AML Phase 1 trial, clinical response; format: in vivo, human
Protocol: as §1
Several additional factors are notable for these patients with biologic activity.

[4] = system: bone marrow macrophages and T cells; assay: Immunohistochemistry of macrophages and T cells in patient bone marrow; format: in vivo, human; settings: patient with partial response
Protocol: In one patient that obtained a partial response, macrophage and T cell infiltrates in the bone marrow was assessed.

circulating WBC = assay: AML Phase 1 trial, cytoreduction with concomitant Hu5F9-G4, safety; format: in vivo, human; settings: any patients treated on Phase 1 trial
myeloid mutations = assay: Targeted DNA sequencing of myeloid mutations in Phase 1 AML patients; format: in vivo, human; settings: Phase 1 AML patients receiving Hu5F9-G4
Source text: as §2

Compound: Nc1ncn([C@@H]2O[C@H](CO)[C@@H](O)[C@H]2O)c(=O)n1 [Azacitidine]
- phagocytic elimination of HL60 leukemia cells by human macrophages (HL60 leukemia cells): did not enhance

Compound: Hu5F9-G4: a humanized anti-CD47 antibody
- effect of intra-subject dose escalation (low doses first, then higher doses) (human AML; AML xenografted mice with high circulating burden): prevented early mortality but also resulted in safe clearance of leukemic cells
- clearance of disease (human AML; Cohort I, 100 μg/day for 14 days, sole surviving mouse): disease was cleared
- clearance of disease (human AML; Cohort III, 7 doses of 1 μg, 7 doses of 10 μg, 14 doses of 100 μg): noticeably diminished
- relapse (human AML; Cohort III, after end of treatment): relapsed several weeks after the end of treatment
- effect of retreatment after relapse (human AML; groups that received dose-escalating regimen): cleared the disease and led to long-term disease free survival in some cases
- early death (human AML; initial dose 1 μg (Cohort III)): no early deaths and None
- early death (human AML; initial dose 10 μg (Cohort II)): 1 of 5 and One mouse out of five
- early death (human AML; initial dose 100 μg (Cohort I)): Four out of five
- survival of subsequent doses (human AML; mouse, in vivo): remaining four mice survived
- time to death after administration of the first dose (human AML; xenografted mice with very high circulating AML burden (>50% of total WBC) and marrow infiltration): ≤ 1 h
- pre-clinical activity across AML subtypes (AML [1]; monotherapy, cytogenetic, molecular, phenotypic/morphologic subtypes): monotherapy activity across a wide range of cytogenetic, molecular, and phenotypic AML subtypes; also recorded: broad pre-clinical activity across AML morphologic, molecular, and cytogenetic subtypes
- activity in relation to tumor burden (AML [1]; pre-clinical and initial clinical studies): enhanced activity in lower tumor burden of disease
- trough level associated with efficacy (AML [1]; pre-clinical models): ≥ 100 µg/mL
- achievement of target trough levels (100 μg/ml) ([2]; dose levels 3 mg/kg or less (Cohorts 1 and 2)): did not achieve target trough levels
- time to achieve target trough levels (100 μg/ml) ([2]; dose levels of 10 mg/kg or greater (Cohorts 3 and 4)): about 4 weeks
- blast reduction (AML [3]; Cohort 3, one patient with partial response): > 50%
- RBC transfusion requirements (AML [3]; Cohort 3, patient with partial response, month 3 and beyond of treatment): from approximately every week prior to treatment to once a month
- duration of response (AML [3]; Cohort 3, patient with partial response, ongoing): over 6 months
- patients exhibiting biologic antileukemic activity (AML [3]; maximum of 10 mg/kg twice weekly (Cohort 3)): two out of three
- response to therapy (AML [3]; patients, at or below 3 mg/kg (Cohorts 1 and 2)): not expected nor observed
- macrophages present in the marrow (CD68 or CD163 staining) ([4]; week 4 of treatment): significant number of macrophages
- T cell infiltrates, of all bone marrow cells ([4]; week 8 of therapy, baseline 10-15% or 15%): 40-50%
- acute death related to Hu5F9-G4 (circulating WBC): No acute death
- mutational burden (variant allele frequency) (myeloid mutations): Reduction in mutational burden (variant allele frequency) was observed for some mutations over others
